Here are results for 8 compounds from patent US7427640B1, “Oil materials comprising dimerdiol ester and cosmetics comprising the ester” (Nippon Fine Chemical Co., Ltd., priority 1999, dated 2008).

Type in all cases: physicochemical
A short description of data set [1]: Dispersability for pigment, titanium dioxide. An excerpt: (§1) Titanium dioxide, red iron oxide and organic pigment used in the measurement are PIGMOLITE CR-50, PIGMOLITE BENGARA No. 211 and Red 202, respectively, manufactured by DAITO KASEI KOGYO Co. Ltd. The dispersability is expressed by amount (g) of the tested sample per 100 g of the pigment at wet point (W.P) and flow point (F.P).

The nature of data set [2]: Dispersability for pigment, red iron oxide. As to conditions: amount of tested sample per 100 g of the pigment at wet point.
Source text: as §1

The nature of data set [3]: Refractive index (refractometer Model 3). On the procedure: Refractive index of the dimerdiol esters obtained in Examples 1, 3, 5, 7, 9 and 11 were measured. Each of the refractive index was measured at 30° C. using a refractometer Model 3 (Manufactured by ATAGO BUSSAN Ltd.).
Refractive index of the esters obtained in Examples 28-35 were measured. Each of the refractive index was measured at 20° C. using a refractometer Model 3 (Manufactured by ATAGO BUSSAN Ltd.).

The nature of data set [4]: Dispersability for pigment, organic pigment Red No. 202.
Source text: as §1

Data set [5] in a line: Gloss of wax-solidified ester (handy glossmeter). To be noted: coated on paraffin paper, intensity of reflected light at 60°. The protocol:
Each of the solidified product was coated on paraffin paper and gloss was measured with a handy glossmeter manufactured by HORIBA Ltd. Gloss was expressed by intensity of light reflected on the coated surface of paraffin paper at incident angle/reflection angle of 60°.

A short description of data set [6]: Alkali hydrolysis resistance. As to conditions: 0.8 g of sample heated at 80° C. for 3 hours in 25 mL of 0.05 N KOH-ethanol solution. The protocol:
Alkali hydrolysis resistance of the dimerdiol esters obtained in Examples 1, 3, 5, 7, 9 and 11 were measured. The alkali hydrolysis resistance was expressed by the decomposition ratio of 0.8 g of sample which was heated at 80° C. for 3 hours in 25 mL of 0.05 N of KOH-ethanol solution.

Data set [7] is described as follows: Oxidation stability, Rancimat 676 automatic oils and fats stability test. An excerpt:
Index of the oxidation stability was expressed by the time until conductance of the trapped water started rising. […] Index of the oxidation stability was expressed by the time until conductance of the trapped water started rising.

Where [8] appears, read: amount of tested sample per 100 g of the pigment at flow point.
The mark [9] stands for this setting: amount of tested sample per 100 g of the pigment at wet point.
The mark [10] stands for this setting: 120° C., 3 g of sample, air flow rate 20 L/Hr, time until conductance of the trapped water started rising, esters of Examples 1-12.

Where two headings read alike, the source gives them in different places.

`CC(C)CCCCCCCCCCCCCCCOC(=O)CC(O)C(=O)OCCCCCCCCCCCCCCCC(C)C` (centres unmarked) [di-iostearyl malate, di-isostearyl malate]: the “Titanium dioxide F.P” value in data set [1] (setting [8]) stood at 55 g. The “Titanium dioxide W.P” value in data set [1] (setting [9]) stood at 26 g. The “Red iron oxide W.P” value in data set [2] was 63 g. For the same compound, in data set [3] (20° C.), the Refractive index is 1.4611. The “Red 202 F.P” value in data set [4] (setting [8]) was found to be 200 g. In addition, the “Red 202 W.P” value in data set [4] (setting [9]) stood at 106 g. Besides, in data set [5] (solidified by compounding 20% of candelira wax), the “Gloss, Candelira wax” value was determined as 41. Besides, the “Gloss, Ceresin” value in data set [5] (solidified by compounding 20% of ceresine) stood at 35.

As for `CC(C)CCCCC(=O)OCC(O)CO` (centres unmarked) [glyceryl isooctanoate, reference compound], the Decomposition ratio in data set [6] is recorded as 8%.

With dimerdiol [PESPOL HP-1000], in data set [3] (30° C.), the Refractive index is recorded as 1.4778.

With erucic acid dimerdiol ester [Example 3], the Decomposition ratio in data set [6] is 79%. The “Index of oxidation stability” value in data set [7] (setting [10]) turned out to be 3 h. Besides, in data set [3] (30° C.), the Refractive index is on record as 1.4719.

Regarding “hydrogenated rosin dimerdiol ester [Example 1]”, the Decomposition ratio in data set [6] worked out at 3%. In data set [7] (setting [10]), the “Index of oxidation stability” value turned out to be 6 h. Besides, in data set [3] (30° C.), the Refractive index is on record as 1.5075.

As to “isostearic acid dimerdiol ester [Example 11]”, in data set [6], the Decomposition ratio came to 70%. Further, the “Index of oxidation stability” value in data set [7] (setting [10]) is 8 h. In data set [3] (30° C.), this compound gave a Refractive index of 1.4709.

Consider “long chain branched fatty acid dimerdiol ester [Example 7]”, for which the “Index of oxidation stability” value in data set [7] is 4 h.

Take “mono-isostearic acid dimerdiol ester [Example 5]”: the Decomposition ratio in data set [6] is 71%. Moreover, the “Index of oxidation stability” value in data set [7] (setting [10]) is 8 h. The compound further had a Refractive index in data set [3] (30° C.) of 1.4659.
